From US12698311B2, “Process for the preparation of an antimicrobial peptide” (INSTITUTE OF BIORESOURCES AND SUSTAINABLE DEVELOPMENT, priority 2020, dated 2026)
No end group written: not given here.

How the values were obtained:
[1] = format: cell-based; settings: broth dilution bioassay
Experimental: The peptides were recovered by lyophilization and stored at −20° C. until further use. The MIC of the RP-HPLC purified bioactive metabolite was determined to be 0.0365 μg μl^−1 with broth dilution bioassay. The two peaks were detected in the selected wavelengths of λ280 nm, λ205 nm and λ214 nm. However, only the peak 1 was selected for further study as it had shown more potency in antimicrobial susceptibility test.

[2] = Retention of antimicrobial activity after treatment with inorganic solvents and temperature; format: physicochemical; set-up: key to Activity: (+) retention; (−) loss
Description: Effect of Temperature and Inorganic Solvents:
The AMP, Peoriaerin IBSD35 is a very stable biomolecule and works on a wide range of temperature and pH and withstand against inorganic solvents as shown in Table 2 below.

[3] = Retention of antimicrobial activity after treatment with degradative enzymes; format: physicochemical; set-up: key to Activity: (+) retention; (−) loss
Experimental: Effect of Physiological Enzymes:
The purified AMP, Peoriaerin IBSD35 is treated with proteolytic enzymes, it can withstand against enzymes and its antimicrobial activity was checked by measuring the zone of inhibition as shown in Table 3 below.

[4] = Retention of antimicrobial activity after treatment with detergents; format: physicochemical; set-up: key: (+) retention; (−) loss
Experimental: The surfactants such as sodium dodecyl sulphate (SDS), Tween 20, Tween 80 and Triton X were incubated with the anti-microbial compound, Peoriaerin IBSD35.

[5] = test system: Candida albicans ATCC 10231, Escherichia coli ATCC 25922, Klebsiella pneumoniae ATCC 4352, Salmonella typhimurium ATCC 14028, Candida tropicalis ATCC 750 and …; assay: Spectrum of antimicrobial activity against AMR pathogens; format: cell-based; settings: six ATCC strains listed
Experimental: Spectrum of antimicrobial activity: The spectrum of activity was determined from the selected test pathogens viz. S. aureus ATCC25923, C. ablicans ATCC 10231, and E. coli ATCC 25922 which represented as a Gram (+), Gram (−) and fungal pathogens (FIG. 2). […] The cell debris were removed by centrifugation at 4000 rpm for 15 min at 4° C. The supernatant was harvested for antimicrobial bioassay and preserved at 4° C. for further purification (Fujita et al., 2007). The well loaded with samples that shown a clear halo zone of inhibition (at least 6-7 mm diameter) were taken as positive against the selected Gram (+ve), Gram (−ve) and fungal pathogens. The bacterial endophytic strain IBSD35 isolated from M. pachycarpa has shown a broad-spectrum of AA against the representative test pathogens in the preliminary Spot-on-lawn bioassay and the Cut-well agar diffusion bioassay (FIG. 2). It inferred antifungal, antibacterial and antimicrobial property of the endophyte strain IBSD35.

Sequence: GFEFAGAGNGVGRVNSATDATYGLGVFLDAGDNNLAKNAESTGYNDANAVTVTK [Peoriaerin IBSD35]
- MIC [1]: 36.5 µg/mL
- stable at a pH in the range [2]: 4-9
- Activity ([2]; after Acetone (1:1)): +
- Activity ([2]; after Butanol (1:1)): +
- Activity ([2]; after Ethyl acetate (1:1)): +
- Activity ([2]; after Isopropanol (1:1)): +
- Activity ([2]; after Methanol (1:1)): +
- Activity ([2]; after Petroleum ether (1:1)): +
- Activity ([2]; after Temperature 20 ° C.): +
- Activity ([2]; after Temperature 40 ° C.): +
- Activity ([2]; after Temperature 60 ° C.): +
- Activity ([2]; after Temperature 80 ° C.): +
- Activity ([2]; after Temperature 100 ° C.): +
- Activity ([2]; after Temperature 121 ° C.): +
- Activity ([3]; after Catalase): +
- Activity ([3]; after Cellulase): +
- Activity ([3]; after Pectinase): +
- Activity ([3]; after Pepsin): +
- Activity ([3]; after Proteinase K (1 mg/ml)): +
- Zone of inhibition diameter ([3]; after Proteinase K (1 mg/ml)): 11 mm
- Activity ([4]; after SDS (1:1)): +
- Activity ([4]; after Triton X (1:1)): +
- Activity ([4]; after Tween 20 (1:1)): +
- Activity ([4]; after Tween 80 (1:1)): +
- antimicrobial activity against gram positive, gram negative and fungal anti-microbial resistant pathogens [5]: strong and broad spectrum of antimicrobial activity
